Assay results taken from patent publication US5191079A, “Quinolinecarboxylic acid derivatives” (priority 1990, dated 1993).
Converted amounts (≈) assume the structure as drawn.

Tests used:
Format in all cases: cell-based
[1] = tested on: Staphylococcus aureus FDA 209P JC-1; experiment: MIC, Experiment 1; conditions: FDA209P, S. aureus FDA 209P JC-1, Gram +, read-out: Min. inhib. concentr. (MIC)
Description: (§1) The compounds of the present invention (B, E, G, H, M, N, O, P and Q) were each dissolved in dimethylsulfoxide to prepare a solution of 5000 μg/ml in concentration. The compounds of the present invention (I, J and K) and the known compound (Y) were each dissolved in sterilized distilled water to prepare a solution of 5000 μg/ml in concentration. Each solution was diluted with sterilized distilled water to prepare a standard solution with a concentration of each test compound: 1000 μg/ml. The test was carried out by a method as appointed by Japan Society of Chemotherapy [cf. Chemotherapy, 29, 76-79 (1981), TOKYO].
(§2) As to Streptococcus pneumoniae and Streptococcus pyogenes, Brain heart infusion broth (manufactured by DIFCO) was used as the medium for the preculture thereof, and a heart infusion agar medium containing 5% defibrinated horse blood (manufactured by Nissui Seiyaku K. K., Japan) was used as the medium for the measurement of minimum inhibitory concentration (MIC). As to other microorganisms, a sensitivity test broth (manufactured by Nissui Seiyaku K. K.) was used as the medium for the preculture thereof, and a sensitivity test agar medium (manufactured by Nissui Seiyaku K. K.) was used as the medium for the measurement of MIC.

Bacillus cereus IAM 1029 = experiment: MIC, Experiment 1; conditions: IAM1029, B. cereus IAM 1029, Gram +, read-out: Min. inhib. concentr. (MIC)
Description: as §1, §2

Enterobacter cloacae 963 = experiment: MIC, Experiment 1; conditions: E. cloacae 963, Gram -, read-out: Min. inhib. concentr. (MIC)
Description: as §1, §2

[2] = tested on: Streptococcus pneumoniae IID 552; experiment: MIC, Experiment 1; conditions: IID552, S. pneumoniae IID 552, Gram +, agar with 5% defibrinated horse blood, read-out: Min. inhib. concentr. (MIC)
Description: as §1, §2

[3] = tested on: Staphylococcus aureus IID 803; experiment: MIC, Experiment 1; conditions: IID803, S. aureus IID 803, Gram +, read-out: Min. inhib. concentr. (MIC)
Description: as §1, §2

[4] = tested on: Streptococcus pyogenes Cook; experiment: MIC, Experiment 1; conditions: S. pyogenes Cook, Gram +, agar with 5% defibrinated horse blood, read-out: Min. inhib. concentr. (MIC)
Description: as §1, §2

[5] = tested on: Klebsiella pneumoniae PCI-602; experiment: MIC, Experiment 1; conditions: PCI602, K. pneumoniae PCI-602, Gram -, read-out: Min. inhib. concentr. (MIC)
Description: as §1, §2

[6] = tested on: Streptococcus pyogenes Su; experiment: MIC, Experiment 1; conditions: S. pyogenes Su, Gram +, agar with 5% defibrinated horse blood, read-out: Min. inhib. concentr. (MIC)
Description: as §1, §2

[7] = tested on: Escherichia coli NIHJ JC-2; experiment: MIC, Experiment 1; conditions: NIHJJC2, E. coli NIHJ JC-2, Gram -, read-out: Min. inhib. concentr. (MIC)
Description: as §1, §2

[8] = tested on: Acinetobacter calcoaceticus Ac 54; experiment: MIC, Experiment 1; conditions: AC54, A. calcoaceticus Ac 54, Gram -, read-out: Min. inhib. concentr. (MIC)
Description: as §1, §2

[9] = tested on: Staphylococcus aureus Terajima (IID 670); experiment: MIC, Experiment 1; conditions: IID670, S. aureus Terajima (IID 670), Gram +, read-out: Min. inhib. concentr. (MIC)
Description: as §1, §2

[10] = tested on: Streptococcus pyogenes Sv; experiment: MIC, Experiment 1; conditions: S. pyogenes Sv, Gram +, agar with 5% defibrinated horse blood, read-out: Min. inhib. concentr. (MIC)
Description: as §1, §2

[11] = tested on: Staphylococcus aureus FDA 243; experiment: MIC, Experiment 1; conditions: FDA243, S. aureus FDA 243, Gram +, read-out: Min. inhib. concentr. (MIC)
Description: as §1, §2

[12] = tested on: Staphylococcus aureus ATCC 9144; experiment: MIC, Experiment 1; conditions: ATCC9144, S. aureus ATCC 9144, Gram +, read-out: Min. inhib. concentr. (MIC)
Description: as §1, §2

[13] = tested on: clinically isolated Enterococcus faecium; experiment: In vitro antibacterial activity against clinical isolates, Experiment 2; conditions: for MIC / MIC90: 25 clinical strains E. faecium; for MIC90: 90% of strains, read-out: MIC90
Description: (§3) The above solutions were then diluted with sterilized distilled water to prepare a standard solution with a concentration of the test compound: 1000 μg/ml each.
(§4) For the preculture of each microorganism, there was used as the medium a sensitivity test broth (manufactured by Nissui Seiyaku K. K., Japan), and for the measurement of MIC, there was used a sensitivity test agar medium (manufactured by Nissui Seiyaku K. K.).
(§5) The clinically isolates used above were isolated from Nov. 1988 to Jun. 1989 and were obtained from Research Section, Tokyo Clinical Research Center.

[14] = tested on: clinically isolated Enterococcus faecalis; experiment: as above; conditions: 25 clinical strains E. faecalis; for MIC50: 50% of strains, read-out: MIC50; for MIC90: 90% of strains, read-out: MIC90
Description: as §3, §4, §5

[15] = tested on: clinically isolated Staphylococcus aureus; experiment: as above; conditions: 25 clinical strains S. aureus incl. 16 methicillin resistant; for MIC50: 50% of strains, read-out: MIC50; for MIC90: 90% of strains, read-out: MIC90
Description: as §3, §4, §5

[16] = tested on: clinically isolated Staphylococcus epidermidis; experiment: as above; conditions: Staphylococcus epidermidis, 25 clinical strains S. epidermidis; for MIC50: 50% of strains, read-out: MIC50; for MIC90: 90% of strains, read-out: MIC90
Description: as §3, §4, §5

[17] = tested on: Staphylococcus epidermidis IAM 1296; experiment: MIC, Experiment 1; conditions: IAM1296, S. epidermidis IAM 1296, Gram +, read-out: Min. inhib. concentr. (MIC)
Description: The compounds of the present invention ([…] and Q) were each dissolved in dimethylsulfoxide to prepare a solution of 5000 μg/ml in concentration. The compounds of the present invention (I, J and K) and the known compound (Y) were each dissolved in sterilized distilled water to prepare a solution of 5000 μg/ml in concentration. […] The test was carried out by a method as appointed by Japan Society of Chemotherapy [cf. Chemotherapy, 29, 76-79 (1981), TOKYO]. As to Streptococcus pneumoniae and Streptococcus pyogenes, Brain heart infusion broth (manufactured by DIFCO) was used as the medium for the preculture thereof, and a heart infusion agar medium containing 5% defibrinated horse blood (manufactured by Nissui Seiyaku K. K., Japan) was used as the medium for the measurement of minimum inhibitory concentration (MIC). As to other microorganisms, a sensitivity test broth (manufactured by Nissui Seiyaku K. K.) was used as the medium for the preculture thereof, and a sensitivity test agar medium (manufactured by Nissui Seiyaku K. K.) was used as the medium for the measurement of MIC.

Structure (SMILES)	MIC [1] [µg/mL]	MIC (Bacillus cereus IAM 1029) [µg/mL]	MIC (Enterobacter cloacae 963) [µg/mL]	MIC [2] [µg/mL]	MIC [3] [µg/mL]	MIC [4] [µg/mL]	MIC [5] [µg/mL]	MIC [6] [µg/mL]	MIC [7] [µg/mL]	MIC [8] [µg/mL]	MIC [9] [µg/mL]	MIC [10] [µg/mL]	MIC [11] [µg/mL]	MIC [12] [µg/mL]	MIC50 [13] [µg/mL]	MIC [13] [µg/mL]	MIC90 [13] [µg/mL]	MIC [14] [µg/mL]	MIC50 [14] [µg/mL]	MIC90 [14] [µg/mL]	further results
CN1Cc2csc3c(C(=O)O)c(=O)c4cc(F)c(N5CCOC(CCl)C5)c1c4n23 (stereo not drawn) [Compound (D), 9,1-(Methylimino)methano-7-fluoro-8-(2-chloromethylmorpholino)-5-oxo-5H-thiazolo[3,2-a]quinoline-4-carboxylic acid]	0.013 (≈ 0.0297 µM)	0.025 (≈ 0.0571 µM)	0.39 (≈ 0.891 µM)	0.05 (≈ 0.114 µM)	≤ 0.006	0.05 (≈ 0.114 µM)	0.025 (≈ 0.0571 µM)	0.025 (≈ 0.0571 µM)	0.2 (≈ 0.457 µM)	≤ 0.006	0.025 (≈ 0.0571 µM)	0.05 (≈ 0.114 µM)	≤ 0.006	0.013 (≈ 0.0297 µM)	0.39 (≈ 0.891 µM)	0.05 to 3.13 (≈ 0.114 to 7.15 µM)	3.13 (≈ 7.15 µM)	0.05 to 3.13 (≈ 0.114 to 7.15 µM)	0.2 (≈ 0.457 µM)	1.56 (≈ 3.56 µM)	MIC [15]: 0.006 to 0.2 µg/mL (≈ 0.0137 to 0.457 µM); MIC50 [15]: 0.013 µg/mL (≈ 0.0297 µM); MIC90 [15]: 0.2 µg/mL (≈ 0.457 µM); MIC [16]: 0.006 to 0.39 µg/mL (≈ 0.0137 to 0.891 µM); MIC50 [16]: 0.013 µg/mL (≈ 0.0297 µM); MIC90 [16]: 0.2 µg/mL (≈ 0.457 µM); MIC [17]: 0.025 µg/mL (≈ 0.0571 µM)
CN1Cc2csc3c(C(=O)O)c(=O)c4cc(F)c(N5CCC(=O)CC5)c1c4n23 [Compound (G), 9,1-(Methylimino)methano-7-fluoro-8-(4-oxopiperidino)-5-oxo-5H-thiazolo[3,2-a]quinoline-4-carboxylic acid]	0.013 (≈ 0.0324 µM)	0.013 (≈ 0.0324 µM)	0.2 (≈ 0.498 µM)	0.025 (≈ 0.0623 µM)	≤ 0.006	0.025 (≈ 0.0623 µM)	≤ 0.006	0.013 (≈ 0.0324 µM)	0.1 (≈ 0.249 µM)	≤ 0.006	0.013 (≈ 0.0324 µM)	0.025 (≈ 0.0623 µM)	≤ 0.006	≤ 0.006	0.39 (≈ 0.972 µM)	0.025 to 3.13 (≈ 0.0623 to 7.8 µM)	3.13 (≈ 7.8 µM)	0.025 to 1.56 (≈ 0.0623 to 3.89 µM)	0.05 (≈ 0.125 µM)	1.56 (≈ 3.89 µM)	MIC [15]: 0.006 to 0.39 µg/mL (≈ 0.0149 to 0.972 µM); MIC50 [15]: ≤ 0.006 µg/mL; MIC90 [15]: 0.2 µg/mL (≈ 0.498 µM); MIC [16]: 0.006 to 0.2 µg/mL (≈ 0.0149 to 0.498 µM); MIC50 [16]: 0.013 µg/mL (≈ 0.0324 µM); MIC90 [16]: 0.2 µg/mL (≈ 0.498 µM); MIC [17]: 0.013 µg/mL (≈ 0.0324 µM)
